The values that follow come from PubChem BioAssay (NCI).

What all share (test): growth of human tumour cells (NCI), 48 h
Test [1] concerns A549 NSCLC.
Test [2] relates to BT-549 breast.
Test [3] deals with CAKI-1 renal.
Test [4] relates to EKVX NSCLC.
For test [5], the system named is HCT-116 colon.
In test [6] the test system is HOP-92 NSCLC.
Test [7] has as its system HT29 colon.
The test system of test [8] is LOX IMVI melanoma.
Test [9] has as its system M14 melanoma.
The test system of test [10] is NCI-H23 lung.
In test [11] the test system is NCI-H522 lung.
The test system of test [12] is RPMI-8226 leukemia.
For test [13], the system named is RXF 393 renal.
Test [14] concerns SNB-19 CNS.
Test [15] relates to T-47D breast.
For test [16], the system named is UO-31 renal.

SMILES strings stand for the structures.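 Where inhibition never reached the appropriate level, the endpoint shown equals the highest concentration tested. Otherwise, values were interpolated linearly from a five-concentration, 48-hour dose response in 96-well plates. TGI marks complete inhibition of growth.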

Take `COC(=O)/C(C#N)=C(/NCc1ccccc1)Nc1ccccc1`: the TGI in [1], in test [2], in [3], in [4], in [5] and in test [6] was > 100 µM in each case. In addition, the TGI in test [7], in [8], in test [9], in [10], in test [11] and in [12] was > 100 µM throughout. Also, the TGI in test [13], in [14], in [15] and in test [16] was > 100 µM throughout.
With `O=C1CC2(CCNCC2)C(=O)N1N1CCCCC1`, the TGI in [1], in test [2], in [3], in [4], in test [5] and in [6] was > 100 µM in each case. Further, the TGI in [7], in [8], in test [9], in test [10], in test [11] and in test [12] was > 100 µM in each case. The TGI in test [13], in test [14], in [15] and in test [16] was > 100 µM each time.
Regarding `COC(=O)C1=C(C(=O)OC)C(OO)(c2ccccc2)OC1=O` (stereo not given), the TGI in test [1], in [2], in [3], in [4], in [5] and in test [6] was > 100 µM each time. The TGI in test [7] was > 100 µM; in test [8] it was 96 µM; in [9] it was > 100 µM; in [10], > 100 µM; in [11], > 100 µM; in [13], > 100 µM. For the same molecule, the TGI in [14], in [15] and in test [16] was > 100 µM in each case.
For the molecule `Cc1ccc(C2=Nn3c(nc4sc5c(c4c3=O)CCCC5)SC2)cc1`, the TGI in test [1], in test [2], in test [3], in [4], in test [5] and in [6] was > 100 µM in each case. The TGI in test [7], in test [8], in test [10], in test [11], in test [12] and in test [13] was > 100 µM each time. Besides, the TGI in test [15] and in test [16] was > 100 µM in each case.
Consider `O=C(/C=C/c1ccccc1Br)c1ccccc1`, for which the TGI in test [1] was found to be 25.3 µM; in [2], 26.4 µM; in test [3] it was 8.37 µM; in [4], 26.4 µM; in test [5] it was 3.85 µM; in [6], 32.4 µM. Also, the TGI in test [7] was 9.42 µM; in test [8], 2.64 µM; in [9], 15.1 µM; in test [10], 12.6 µM; in [11], 9.73 µM; in test [13], 20.1 µM. The values for the TGI in test [14], in test [15] and in [16] were 23.2 µM, 15.5 µM and 11.3 µM, respectively.
For the molecule `Cc1ccc(S(=O)(=O)OI(O)CC(F)(F)F)cc1`, the TGI in test [1], in test [2], in test [3], in [4], in test [5] and in test [6] was > 100 µM each time. Also, the TGI in test [7], in [8], in test [9], in test [10], in test [11] and in [12] was > 100 µM each time. The TGI in test [13], in [15] and in test [16] was > 100 µM in each case.
With `COc1cc(/C=C2\CC(C)C/C(=C\c3ccc(O)c(OC)c3)C2=O)ccc1O` (stereo not given), the TGI in [1] worked out at 17.8 µM; in [2] it was 12.3 µM; in test [4] it was 28.1 µM; in test [5], 3.4 µM; in test [6], 10.4 µM; in test [7], 20.1 µM. Besides, the TGI in test [8] is 5.79 µM; in test [9], 8.22 µM; in test [10], 11 µM; in [11] it was 3.86 µM; in [12], > 100 µM; in test [13], 7.56 µM. The TGI in test [14] is 22.3 µM; in test [15], 4.5 µM; in [16], 5.41 µM.
Take `CC(C)(C)Cc1cc(O)ccc1O`: the TGI in test [1], in [2], in test [3], in test [4], in [5] and in test [6] was > 100 µM throughout. The TGI was > 100 µM in [7]; > 100 µM in [8]; > 100 µM in test [9]; > 100 µM in test [10]; 86.7 µM in test [11]; > 100 µM in [13]. Also, the TGI in [14], in test [15] and in test [16] was > 100 µM throughout.
As to `Nc1ncnc2c1ncn2[C@@H]1C[C@H](NO)[C@@H](O)[C@H]1O`, the TGI in test [1], in test [2], in test [4], in test [5], in [6] and in test [8] was > 100 µM in each case. For the same molecule, the TGI in test [9], in [10], in [11], in test [12], in [13] and in [14] was > 100 µM throughout. In addition, the TGI in test [15] and in test [16] was > 100 µM each time.
